These results are taken from US10479819B2 (priority 2014, dated 2019).

Starred links: 1 amine or outer side, 2 acyl side, 3 side chain; linkers in the order of their positions; H or OH if unused. Non-standard residues stand in square brackets, D forms with d. Residues, ends and D or L forms follow the SMILES beside them. Groups on a side chain read outwards from the residue. *: point of attachment. C18 diacid = O=C(O)CCCCCCCCCCCCCCCCC(=O)*; γGlu = O=C(O)[C@H](CCC(=O)[*:2])N[*:1]; PEG2 = NCCOCCOCCC(=O)O; Aib = CC(C)(N)C(=O)O

The target of this test is T1, human GLP-1R (Homo sapiens, UniProt P43220).
T1 construct: expressed in transfected cells
T1 sequence (P43220 24-463): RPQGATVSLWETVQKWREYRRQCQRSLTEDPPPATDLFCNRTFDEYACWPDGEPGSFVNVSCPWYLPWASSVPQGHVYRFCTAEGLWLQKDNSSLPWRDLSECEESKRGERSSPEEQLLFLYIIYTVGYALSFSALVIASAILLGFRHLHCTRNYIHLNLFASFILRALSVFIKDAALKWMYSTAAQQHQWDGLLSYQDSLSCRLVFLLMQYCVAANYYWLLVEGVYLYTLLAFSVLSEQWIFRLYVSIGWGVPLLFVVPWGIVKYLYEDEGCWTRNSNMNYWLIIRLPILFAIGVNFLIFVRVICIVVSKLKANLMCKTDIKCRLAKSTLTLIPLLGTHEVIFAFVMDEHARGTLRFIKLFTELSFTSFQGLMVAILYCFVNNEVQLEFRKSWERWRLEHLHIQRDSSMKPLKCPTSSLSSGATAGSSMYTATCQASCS
Kind of test: In vitro activity on GLP-1R, CRE-luciferase HEK-293 cells. The class given is cell-based. The following applies: ratio of EC50 GLP-1R to EC50 GCGR. How it is done: 5000 of HEK-293 cells, which are used in CRE-luciferase system and express human GCGR or GLP-1R stably, were inoculated into 384 well plates according to […] DMEM/10% FBS media/well. […] After incubation, […] of luciferase reagent was added directly to each plate and mixed gently for 2 minutes. The plates were placed into an Elmer Perkin plate reader for reading. Concentration curve of the compound was made by drawing software Prism 5, and the EC50 value was calculated.
Turning to `CC(C)C[C@H](NC(=O)[C@H](CC(C)C)NC(=O)[C@H](Cc1c[nH]c2ccccc12)NC(=O)[C@H](CCC(=O)O)NC(=O)[C@@H](NC(=O)[C@H](Cc1ccccc1)NC(=O)[C@H](CC(=O)O)NC(=O)[C@H](Cc1c[nH]cn1)NC(=O)[C@H](C)NC(=O)[C@H](C)NC(=O)[C@H](CCCCNC(=O)CCOCCOCCNC(=O)CCOCCOCCNC(=O)CC[C@H](NC(=O)CCCCCCCCCCCCCCCCC(=O)O)C(=O)O)NC(=O)[C@H](CO)NC(=O)[C@H](CC(=O)O)NC(=O)[C@H](CC(C)C)NC(=O)[C@H](Cc1ccc(O)cc1)NC(=O)[C@H](CCCCN)NC(=O)[C@H](CO)NC(=O)[C@H](Cc1ccc(O)cc1)NC(=O)[C@H](CC(=O)O)NC(=O)[C@H](CO)NC(=O)[C@@H](NC(=O)[C@H](Cc1ccccc1)NC(=O)[C@@H](NC(=O)CNC(=O)[C@H](CCC(N)=O)NC(=O)[C@@H](CO)NC(=O)[C@@H](N)Cc1c[nH]cn1)[C@@H](C)O)[C@@H](C)O)C(C)C)C(=O)N[C@@H](CCCNC(=N)N)C(=O)N[C@@H](C)C(N)=O` [Compound 1], the GLP-1R/GCGR is given as 0.4.
As for `CC[C@H](C)[C@H](NC(=O)[C@H](Cc1ccccc1)NC(=O)[C@H](CCC(=O)O)NC(=O)[C@H](CCCCNC(=O)CCOCCOCCNC(=O)CCOCCOCCNC(=O)CC[C@H](NC(=O)CCCCCCCCCCCCCCCCC(=O)O)C(=O)O)NC(=O)[C@H](C)NC(=O)[C@H](C)NC(=O)[C@H](CCCCN)NC(=O)[C@H](CCC(=O)O)NC(=O)[C@H](CC(=O)O)NC(=O)[C@H](CC(C)C)NC(=O)[C@H](Cc1ccc(O)cc1)NC(=O)[C@H](CCCCN)NC(=O)[C@H](CO)NC(=O)[C@H](Cc1ccc(O)cc1)NC(=O)[C@H](CC(=O)O)NC(=O)[C@H](CO)NC(=O)[C@@H](NC(=O)[C@H](Cc1ccccc1)NC(=O)[C@@H](NC(=O)CNC(=O)[C@H](CCC(N)=O)NC(=O)[C@@H](CO)NC(=O)[C@@H](N)Cc1c[nH]cn1)[C@@H](C)O)[C@@H](C)O)C(=O)N[C@@H](CCC(=O)O)C(=O)N[C@@H](Cc1c[nH]c2ccccc12)C(=O)N[C@@H](CC(C)C)C(=O)N[C@@H](CC(C)C)C(=O)N[C@@H](CCCNC(=N)N)C(=O)N[C@@H](C)C(N)=O` [Compound 2] (H-H[dS]QGTFTSDYSKYLDEKAAK([PEG2-PEG2-γGlu-C18 diacid])EFIEWLLRA-NH2), the GLP-1R/GCGR was found to be 0.1.
Then `CC(C)C[C@H](NC(=O)[C@H](CC(C)C)NC(=O)[C@H](Cc1c[nH]c2ccccc12)NC(=O)[C@H](CCC(=O)O)NC(=O)[C@@H](NC(=O)[C@H](Cc1ccccc1)NC(=O)[C@H](CC(=O)O)NC(=O)[C@H](Cc1c[nH]cn1)NC(=O)[C@H](C)NC(=O)[C@H](C)NC(=O)[C@H](CCCCNC(=O)CCOCCOCCNC(=O)CCOCCOCCNC(=O)CC[C@H](NC(=O)CCCCCCCCCCCCCCCCC(=O)O)C(=O)O)NC(=O)[C@H](CO)NC(=O)[C@H](CC(=O)O)NC(=O)[C@H](CC(C)C)NC(=O)[C@H](Cc1ccc(O)cc1)NC(=O)[C@H](CCCCN)NC(=O)[C@H](CO)NC(=O)[C@H](Cc1ccc(O)cc1)NC(=O)[C@H](CC(=O)O)NC(=O)[C@H](CO)NC(=O)[C@@H](NC(=O)[C@H](Cc1ccccc1)NC(=O)[C@@H](NC(=O)CNC(=O)[C@H](CCC(N)=O)NC(=O)[C@@H](CO)NC(=O)[C@@H](N)Cc1c[nH]cn1)[C@@H](C)O)[C@@H](C)O)C(C)C)C(=O)N[C@@H](CC(N)=O)C(=O)NCC(=O)NCC(=O)N1CCC[C@H]1C(=O)N[C@@H](CO)C(=O)N[C@@H](CO)C(=O)NCC(=O)N[C@@H](C)C(=O)N1CCC[C@H]1C(=O)N1CCC[C@H]1C(=O)N1CCC[C@H]1C(=O)N[C@@H](CO)C(N)=O` [Compound 3], with 0.6; and `CCCCCCCCCCCCCCCC(=O)N[C@@H](CCC(=O)NCCOCCOCCC(=O)NCCOCCOCCC(=O)NCCCC[C@H](NC(=O)[C@H](CC(=O)O)NC(=O)[C@H](CC(C)C)NC(=O)[C@H](Cc1ccc(O)cc1)NC(=O)[C@H](CCCCN)NC(=O)[C@H](CO)NC(=O)[C@H](Cc1ccc(O)cc1)NC(=O)[C@H](CC(=O)O)NC(=O)[C@H](CO)NC(=O)[C@@H](NC(=O)[C@H](Cc1ccccc1)NC(=O)[C@@H](NC(=O)CNC(=O)[C@H](CCC(N)=O)NC(=O)[C@@H](CO)NC(=O)[C@@H](N)Cc1c[nH]cn1)[C@@H](C)O)[C@@H](C)O)C(=O)N[C@@H](CCCNC(=N)N)C(=O)N[C@@H](CCCNC(=N)N)C(=O)N[C@@H](C)C(=O)N[C@@H](CCC(N)=O)C(=O)N[C@@H](CC(=O)O)C(=O)N[C@@H](Cc1ccccc1)C(=O)N[C@H](C(=O)N[C@@H](CCC(N)=O)C(=O)N[C@@H](Cc1c[nH]c2ccccc12)C(=O)N[C@@H](CC(C)C)C(=O)N[C@@H](CCSC)C(=O)N[C@@H](CC(N)=O)C(=O)N[C@H](C(=O)NCC(=O)NCC(=O)N1CCC[C@H]1C(=O)N[C@@H](CO)C(=O)N[C@@H](CO)C(=O)NCC(=O)N[C@@H](C)C(=O)N1CCC[C@H]1C(=O)N1CCC[C@H]1C(=O)N1CCC[C@H]1C(=O)N[C@@H](CO)C(N)=O)[C@@H](C)O)C(C)C)C(=O)O` [Compound 10], with 3.3; and `CSCC[C@H](NC(=O)[C@H](CC(C)C)NC(=O)[C@H](Cc1c[nH]c2ccccc12)NC(=O)[C@H](CCC(N)=O)NC(=O)[C@@H](NC(=O)[C@H](Cc1ccccc1)NC(=O)[C@H](CC(=O)O)NC(=O)[C@H](CCC(N)=O)NC(=O)[C@H](C)NC(=O)[C@H](CCCNC(=N)N)NC(=O)[C@H](CCCCNC(=O)CCOCCOCCNC(=O)CCOCCOCCNC(=O)CCCCCCCCCCCCCCCCC(=O)O)NC(=O)C(C)(C)NC(=O)[C@H](CC(=O)O)NC(=O)[C@H](CC(C)C)NC(=O)[C@H](Cc1ccc(O)cc1)NC(=O)[C@H](CCCCN)NC(=O)[C@H](CO)NC(=O)[C@H](Cc1ccc(O)cc1)NC(=O)[C@H](CC(=O)O)NC(=O)[C@H](CO)NC(=O)[C@@H](NC(=O)[C@H](Cc1ccccc1)NC(=O)[C@@H](NC(=O)CNC(=O)[C@H](CCC(N)=O)NC(=O)[C@@H](CO)NC(=O)[C@@H](N)Cc1c[nH]cn1)[C@@H](C)O)[C@@H](C)O)C(C)C)C(=O)N[C@@H](CC(N)=O)C(=O)N[C@H](C(=O)NCC(=O)NCC(=O)N1CCC[C@H]1C(=O)N[C@@H](CO)C(=O)N[C@@H](CO)C(=O)NCC(=O)N[C@@H](C)C(=O)N1CCC[C@H]1C(=O)N1CCC[C@H]1C(=O)N1CCC[C@H]1C(=O)N[C@@H](CO)C(N)=O)[C@@H](C)O` [Compound 12] (H-H[dS]QGTFTSDYSKYLD[Aib]K([PEG2-PEG2-C18 diacid])RAQDFVQWLMNTGGPSSGAPPPS-NH2; N-terminus assumed), with 2.1.
Then `CCCCCCCCCCCCCCCC(=O)N[C@@H](CCC(=O)NCCOCCOCCC(=O)NCCOCCOCCC(=O)NCCCC[C@H](NC(=O)C(C)(C)NC(=O)[C@H](CC(=O)O)NC(=O)[C@H](CC(C)C)NC(=O)[C@H](Cc1ccc(O)cc1)NC(=O)[C@H](CCCCN)NC(=O)[C@H](CO)NC(=O)[C@H](Cc1ccc(O)cc1)NC(=O)[C@H](CC(=O)O)NC(=O)[C@H](CO)NC(=O)[C@@H](NC(=O)[C@H](Cc1ccccc1)NC(=O)[C@@H](NC(=O)CNC(=O)[C@H](CCC(N)=O)NC(=O)[C@@H](CO)NC(=O)[C@@H](N)Cc1c[nH]cn1)[C@@H](C)O)[C@@H](C)O)C(=O)N[C@@H](CCCNC(=N)N)C(=O)N[C@@H](C)C(=O)N[C@@H](CCC(N)=O)C(=O)N[C@@H](CC(=O)O)C(=O)N[C@@H](Cc1ccccc1)C(=O)N[C@H](C(=O)N[C@@H](CCC(N)=O)C(=O)N[C@@H](Cc1c[nH]c2ccccc12)C(=O)N[C@@H](CC(C)C)C(=O)N[C@@H](CCSC)C(=O)N[C@@H](CC(N)=O)C(=O)N[C@H](C(=O)NCC(=O)NCC(=O)N1CCC[C@H]1C(=O)N[C@@H](CO)C(=O)N[C@@H](CO)C(=O)NCC(=O)N[C@@H](C)C(=O)N1CCC[C@H]1C(=O)N1CCC[C@H]1C(=O)N1CCC[C@H]1C(=O)N[C@@H](CO)C(N)=O)[C@@H](C)O)C(C)C)C(=O)O` [Compound 13], with 2.8; and `CSCC[C@H](NC(=O)[C@H](CC(C)C)NC(=O)[C@H](Cc1c[nH]c2ccccc12)NC(=O)[C@H](CCC(N)=O)NC(=O)[C@@H](NC(=O)[C@H](Cc1ccccc1)NC(=O)[C@H](CC(=O)O)NC(=O)[C@H](CCC(N)=O)NC(=O)[C@H](C)NC(=O)[C@H](CCCNC(=N)N)NC(=O)[C@H](CCCCNC(=O)CCOCCOCCNC(=O)CCOCCOCCNC(=O)CC[C@H](NC(=O)CCCCCCCCCCCCCCCCC(=O)O)C(=O)O)NC(=O)C(C)(C)NC(=O)[C@H](CC(=O)O)NC(=O)[C@H](CC(C)C)NC(=O)[C@H](Cc1ccc(O)cc1)NC(=O)[C@H](CCCCN)NC(=O)[C@H](CO)NC(=O)[C@H](Cc1ccc(O)cc1)NC(=O)[C@H](CC(=O)O)NC(=O)[C@H](CO)NC(=O)[C@@H](NC(=O)[C@H](Cc1ccccc1)NC(=O)[C@@H](NC(=O)CNC(=O)[C@H](CCC(N)=O)NC(=O)[C@@H](CO)NC(=O)[C@@H](N)Cc1c[nH]cn1)[C@@H](C)O)[C@@H](C)O)C(C)C)C(=O)N[C@@H](CC(N)=O)C(=O)N[C@H](C(=O)NCC(=O)NCC(=O)N1CCC[C@H]1C(=O)N[C@@H](CO)C(=O)N[C@@H](CO)C(=O)NCC(=O)N[C@@H](C)C(=O)N1CCC[C@H]1C(=O)N1CCC[C@H]1C(=O)N1CCC[C@H]1C(=O)N[C@@H](CO)C(N)=O)[C@@H](C)O` [Compound 14], with 2.1; and `CCCCCCCCCCCCCCCC(=O)NCCOCCOCCC(=O)NCCOCCOCCC(=O)NCCCC[C@H](NC(=O)[C@H](CO)NC(=O)[C@H](Cc1ccc(O)cc1)NC(=O)[C@H](CC(=O)O)NC(=O)[C@H](CO)NC(=O)[C@@H](NC(=O)[C@H](Cc1ccccc1)NC(=O)[C@@H](NC(=O)CNC(=O)[C@H](CCC(N)=O)NC(=O)[C@@H](CO)NC(=O)[C@@H](N)Cc1c[nH]cn1)[C@@H](C)O)[C@@H](C)O)C(=O)N[C@@H](CCCCN)C(=O)N[C@@H](CC(C)C)C(=O)N[C@@H](CC(=O)O)C(=O)NC(C)(C)C(=O)N[C@@H](CCCNC(=N)N)C(=O)N[C@@H](CCCNC(=N)N)C(=O)N[C@@H](C)C(=O)N[C@@H](CCC(N)=O)C(=O)N[C@@H](CC(=O)O)C(=O)N[C@@H](Cc1ccccc1)C(=O)N[C@H](C(=O)N[C@@H](CCC(N)=O)C(=O)N[C@@H](Cc1c[nH]c2ccccc12)C(=O)N[C@@H](CC(C)C)C(=O)N[C@@H](CCSC)C(=O)N[C@@H](CC(N)=O)C(=O)N[C@H](C(=O)NCC(=O)NCC(=O)N1CCC[C@H]1C(=O)N[C@@H](CO)C(=O)N[C@@H](CO)C(=O)NCC(=O)N[C@@H](C)C(=O)N1CCC[C@H]1C(=O)N1CCC[C@H]1C(=O)N1CCC[C@H]1C(=O)N[C@@H](CO)C(N)=O)[C@@H](C)O)C(C)C` [Compound 15], with 2.5.
